# Measured values as given in the supplement of paper PMC11061612.
# Tests used:
# AZD7648 = compound: Cc1cc2ncnn2cc1Nc1ncc2c(n1)n(C1CCOCC1)c(=O)n2C [AZD7648]; conditions: max 10 µM
# Procedure, shortened: (§1)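 After 24 hours at 37°C and 5% CO2 in 1536-well plates holding 7.5 μl of DMEM/F12 or RPMI with 10% FBS, cancer cell lines were dosed for 72 hours, with final DMSO typically 0.2%. Viability came from CellTiter-Glo 2.0 luminescence, scaled between the means of blank wells and DMSO wells. A non-linear mixed effects model fitted a two-parameter logistic curve to each dose response to give the single-agent IC50.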
# AZD5991 = compound: Cc1c2c(nn1C)CSCc1cc(n(C)n1)CSc1cc(c3ccccc3c1)OCCCc1c(C(=O)O)n(C)c3c-2c(Cl)ccc13 [AZD5991]; conditions: max 1 µM
# Procedure, shortened: as §1
# Olaparib = compound: O=C(c1cc(Cc2n[nH]c(=O)c3ccccc23)ccc1F)N1CCN(C(=O)C2CC2)CC1 [Olaparib]; conditions: max 10 µM
# Procedure, shortened: as §1
# Dasatinib = compound: CC1=C(C(=CC=C1)Cl)NC(=O)C2=CN=C(S2)NC3=CC(=NC(=N3)C)N4CCN(CC4)CCO [Dasatinib]; conditions: max 2 µM
# Procedure, shortened: as §1
# Venetoclax = compound: CC1(C)CCC(CN2CCN(c3ccc(C(=O)NS(=O)(=O)c4ccc(NCC5CCOCC5)c([N+](=O)[O-])c4)c(Oc4cnc5[nH]ccc5c4)c3)CC2)=C(c2ccc(Cl)cc2)C1 [Venetoclax]; conditions: max 1 µM
# Procedure, shortened: as §1
# AZD1775 = compound: C=CCn1c(=O)c2cnc(Nc3ccc(N4CCN(C)CC4)cc3)nc2n1-c1cccc(C(C)(C)O)n1 [AZD1775]; conditions: max 3 µM
# Procedure, shortened: as §1
# Trametinib = compound: CC(=O)Nc1cccc(-n2c(=O)n(C3CC3)c(=O)c3c(Nc4ccc(I)cc4F)n(C)c(=O)c(C)c32)c1 [Trametinib]; conditions: max 1 µM
# Procedure, shortened: as §1
# AZD6738 = compound: C[C@@H]1COCCN1C2=NC(=NC(=C2)C3(CC3)[S@](=N)(=O)C)C4=C5C=CNC5=NC=C4 [AZD6738]; conditions: max 10 µM
# Procedure, shortened: as §1
# AZD8186 = compound: C[C@@H](Nc1cc(F)cc(F)c1)c1cc(C(=O)N(C)C)cc2c(=O)cc(N3CCOCC3)oc12 [AZD8186]; conditions: max 3 µM
# Procedure, shortened: as §1
# AZD2811 = compound: CCN(CCO)CCCOc1ccc2c(Nc3cc(CC(=O)Nc4cccc(F)c4)[nH]n3)ncnc2c1 [AZD2811]; conditions: max 1 µM
# Procedure, shortened: as §1
# Alisertib = compound: COc1cc(Nc2ncc3c(n2)-c2ccc(Cl)cc2C(c2c(F)cccc2OC)=NC3)ccc1C(=O)O [Alisertib]; conditions: max 10 µM
# Procedure, shortened: as §1
# Palbociclib = compound: CC(=O)c1c(C)c2cnc(Nc3ccc(N4CCNCC4)cn3)nc2n(C2CCCC2)c1=O [Palbociclib]; conditions: max 10 µM
# Procedure, shortened: as §1
# Capivasertib = compound: C1CN(CCC1(C(=O)N[C@@H](CCO)C2=CC=C(C=C2)Cl)N)C3=NC=NC4=C3C=CN4 [Capivasertib]; conditions: max 10 µM
# Procedure, shortened: as §1
# SN-38 = compound: CCc1c2c(nc3ccc(O)cc13)-c1cc3c(c(=O)n1C2)COC(=O)[C@]3(O)CC [SN-38]; conditions: max 0.3 µM
# Procedure, shortened: as §1
# Crizotinib = compound: C[C@@H](Oc1cc(-c2cnn(C3CCNCC3)c2)cnc1N)c1c(Cl)ccc(F)c1Cl [Crizotinib]; conditions: max 10 µM
# Procedure, shortened: as §1
# Taselisib = compound: Cc1nc(-c2cn3c(n2)-c2ccc(-c4cnn(C(C)(C)C(N)=O)c4)cc2OCC3)n(C(C)C)n1 [Taselisib]; conditions: max 10 µM
# Procedure, shortened: as §1
# SG3199 = compound: CC1=CN2[C@@H](C1)C=NC3=CC(=C(C=C3C2=O)OC)OCCCCCOC4=C(C=C5C(=C4)N=C[C@@H]6CC(=CN6C5=O)C)OC [SG3199]; conditions: max 0.001 µM
# Procedure, shortened: as §1
# Selumetinib = compound: Cn1cnc2c(F)c(Nc3ccc(Br)cc3Cl)c(C(=O)NOCCO)cc21 [Selumetinib]; conditions: max 10 µM
# Procedure, shortened: as §1
# AZD1390 = compound: CC(C)n1c(=O)n(C)c2cnc3cc(F)c(-c4ccc(OCCCN5CCCCC5)nc4)cc3c21 [AZD1390]; conditions: max 0.3 µM
# Procedure, shortened: as §1
# AZD0156 = compound: CN(C)CCCOc1ccc(-c2ccc3ncc4c(c3c2)n(C2CCOCC2)c(=O)n4C)cn1 [AZD0156]; conditions: max 3 µM
# Procedure, shortened: as §1
# AZD5153 = compound: COc1nnc2ccc(N3CCC(c4ccc(OCCN5CCN(C)C(=O)[C@H]5C)cc4)CC3)nn12 [AZD5153]; conditions: max 1 µM
# Procedure, shortened: as §1
# Gefitinib = compound: COc1cc2ncnc(Nc3ccc(F)c(Cl)c3)c2cc1OCCCN1CCOCC1 [Gefitinib]; conditions: max 10 µM
# Procedure, shortened: as §1
# Lapatinib = compound: CS(=O)(=O)CCNCc1ccc(-c2ccc3ncnc(Nc4ccc(OCc5cccc(F)c5)c(Cl)c4)c3c2)o1 [Lapatinib]; conditions: max 10 µM
# Procedure, shortened: as §1
# Savolitinib = compound: C[C@@H](c1ccc2nccn2c1)n1nnc2ncc(-c3cnn(C)c3)nc21 [Savolitinib]; conditions: max 1 µM
# Procedure, shortened: as §1
# Doxorubicin = compound: COc1cccc2c1C(=O)c1c(O)c3c(c(O)c1C2=O)C[C@@](O)(C(=O)CO)C[C@@H]3O[C@H]1C[C@H](N)[C@H](O)[C@H](C)O1 [Doxorubicin]; conditions: max 1 µM
# Procedure, shortened: as §1
# AZD4320 = compound: CN(CC[C@H](CSC1=CC=CC=C1)NC2=C(C=C(C=C2)S(=O)(=O)NC(=O)C3=CC=C(C=C3)N4CCC(CC4)[C@H](C5=CC=CC=C5C6=CC=C(C=C6)Cl)O)S(=O)(=O)C(F)(F)F)CCO [AZD4320]; conditions: max 1 µM
# Procedure, shortened: as §1
# Prexasertib = compound: COc1cccc(OCCCN)c1-c1cc(Nc2cnc(C#N)cn2)n[nH]1 [Prexasertib]; conditions: max 1 µM
# Procedure, shortened: as §1
Cell Line,"IC50, cell viability 72 h (AZD7648) [µM]","IC50, cell viability 72 h (AZD5991) [µM]","IC50, cell viability 72 h (Olaparib) [µM]","IC50, cell viability 72 h (Dasatinib) [µM]","IC50, cell viability 72 h (Venetoclax) [µM]","IC50, cell viability 72 h (AZD1775) [µM]","IC50, cell viability 72 h (Trametinib) [µM]","IC50, cell viability 72 h (AZD6738) [µM]","IC50, cell viability 72 h (AZD8186) [µM]","IC50, cell viability 72 h (AZD2811) [µM]","IC50, cell viability 72 h (Alisertib) [µM]","IC50, cell viability 72 h (Palbociclib) [µM]","IC50, cell viability 72 h (Capivasertib) [µM]","IC50, cell viability 72 h (SN-38) [µM]","IC50, cell viability 72 h (Crizotinib) [µM]","IC50, cell viability 72 h (Taselisib) [µM]","IC50, cell viability 72 h (SG3199) [µM]","IC50, cell viability 72 h (Selumetinib) [µM]","IC50, cell viability 72 h (AZD1390) [µM]","IC50, cell viability 72 h (AZD0156) [µM]","IC50, cell viability 72 h (AZD5153) [µM]","IC50, cell viability 72 h (Gefitinib) [µM]","IC50, cell viability 72 h (Lapatinib) [µM]","IC50, cell viability 72 h (Savolitinib) [µM]","IC50, cell viability 72 h (Doxorubicin) [µM]","IC50, cell viability 72 h (AZD4320) [µM]","IC50, cell viability 72 h (Prexasertib) [µM]"
KARPAS-231 (B-Cell Non-Hodgkin's Lymphoma),> 10,0.0314,> 10,> 2,0.007,0.123,> 1,6.03,> 3,0.264,1.02,> 10,> 10,0.00168,> 10,> 10,> 0.001,> 10,> 0.3,> 3,> 1,> 10,> 10,> 1,0.899,0.0212,0.0125
KYSE-410 (Esophageal Squamous Cell Carcinoma),> 10,> 1,> 10,1.9,> 1,2.21,> 1,> 10,> 3,> 1,> 10,> 10,> 10,> 0.3,> 10,2.71,> 0.001,> 10,> 0.3,> 3,> 1,> 10,8.74,> 1,> 1,> 1,0.952
LB771-HNC (Head and Neck Carcinoma),> 10,> 1,> 10,> 2,> 1,0.742,> 1,> 10,> 3,> 1,6.25,> 10,> 10,> 0.3,> 10,2.67,> 0.001,> 10,> 0.3,> 3,> 1,> 10,> 10,> 1,> 1,> 1,0.367
